This note sets out measurements from US8022068B2, “Substituted piperidines as renin inhibitors” (Novartis AG, priority 2008, dated 2011).

In this assay the target is T1, renin (Homo sapiens, UniProt P00797).
T1 construct: This test measures the formation of angiotensin I in human plasma; from tissue; host or cells: human plasma
T1 sequence (P00797 67-406): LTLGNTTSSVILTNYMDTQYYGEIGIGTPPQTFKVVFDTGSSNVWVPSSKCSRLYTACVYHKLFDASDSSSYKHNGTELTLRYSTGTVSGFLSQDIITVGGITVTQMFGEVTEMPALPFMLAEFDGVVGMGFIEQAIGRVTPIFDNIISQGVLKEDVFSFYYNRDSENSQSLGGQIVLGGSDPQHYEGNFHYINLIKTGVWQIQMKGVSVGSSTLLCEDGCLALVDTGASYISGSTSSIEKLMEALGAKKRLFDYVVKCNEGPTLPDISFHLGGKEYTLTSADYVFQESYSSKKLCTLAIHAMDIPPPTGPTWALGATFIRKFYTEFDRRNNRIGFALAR
Briefly: formation of angiotensin I in human plasma (Nussberger et al.), radioimmunoassay. The format is biochemical. To be noted: angiotensin I determined by radioimmunoassay, read-out: IC50, inhibition of the formation of angiotensin I. As for the experimental part: The effect of renin inhibitors is detected inter alia experimentally by means of in vitro tests where the reduction in the formation of angiotensin I is measured in various systems (human plasma, purified human renin together with synthetic or natural renin substrate). The following in vitro test of Nussberger et al. (1987) J. Cardiovascular Pharmacol., Vol. 9, pp. 39-44, is used inter alia. This test measures the formation of angiotensin I in human plasma. The amount of angiotensin I formed is determined in a subsequent radioimmunoassay. The effect of inhibitors on the formation of angiotensin I is tested in this system by adding various concentrations of these substances. The IC50 is defined as the concentration of the particular inhibitor which reduces the formation of angiotensin I by 50%. The compounds of the present invention show inhibitory effects in the in vitro systems at minimal concentrations of about 10^−6 mol/l to about 10^−10 mol/l.

`COCCCN1CCOc2ccc(CO[C@H]3CN[C@@H](Cc4nncn4C)C[C@@H]3c3ccc(COC[C@@H](C)COC)cc3)cc21` [Example 8, 6-[(3R,4R,6R)-4-[4-((S)-3-Methoxy-2-methyl-propoxymethyl)-phenyl]-6-(4-methyl-4H-[1,2,4]triazol-3-ylmethyl)-piperidin-3-yloxymethyl]-4-(3-methoxy-propyl)-3,4-dihydro-2H-benzo[1,4]oxazine]: the half-maximal inhibitory concentration (IC50) – broadly, the concentration that inhibits the measured activity by half – lay in the range of 0.1 to 10 nM.

Turning to `COCCCN1CCOc2ccc(CO[C@H]3CN[C@@H](CN4CCOCC4)C[C@@H]3c3ccc(COC[C@@H](C)COC)cc3)cc21` [Example 10, 6-{(3R,4R,6R)-4-[4-((S)-3-Methoxy-2-methyl-propoxymethyl)-phenyl]-6-morpholin-4-ylmethyl-piperidin-3-yloxymethyl}-4-(3-methoxy-propyl)-3,4-dihydro-2H-benzo[1,4]oxazine], the IC50 is 0.1 to 10 nM.
